{
  "source": "ChEMBL document CHEMBL3585344",
  "about": "“Thiazole-based aminopyrimidines and N-phenylpyrazolines as potent antimicrobial agents: synthesis and biological evaluation” (2014)",
  "key": {"Staphylococcus aureus [1]": {"system": "Staphylococcus aureus", "assay": "Antibacterial activity against Staphylococcus aureus ATCC 6538 after 24 hrs by microdilution method", "format": "functional", "conditions": "ATCC 6538, 24 h"}, "Bacillus cereus [2]": {"system": "Bacillus cereus", "assay": "Antibacterial activity against Bacillus cereus clinical isolate after 24 hrs by microdilution method", "format": "functional"}, "Micrococcus flavus [3]": {"system": "Micrococcus flavus", "assay": "Antibacterial activity against Micrococcus flavus ATCC 10240 after 24 hrs by microdilution method", "format": "functional", "conditions": "ATCC 10240, 24 h"}, "Listeria monocytogenes [4]": {"system": "Listeria monocytogenes", "assay": "Antibacterial activity against Listeria monocytogenes NCTC 7973 after 24 hrs by microdilution method", "format": "functional", "conditions": "NCTC 7973, 24 h"}, "Staphylococcus aureus [5]": {"system": "Staphylococcus aureus", "assay": "Bactericidal activity against Staphylococcus aureus ATCC 6538 after 72 hrs by microdilution method", "format": "functional"}, "Bacillus cereus [6]": {"system": "Bacillus cereus", "assay": "Bactericidal activity against Bacillus cereus clinical isolate after 72 hrs by microdilution method", "format": "functional"}, "Micrococcus flavus [7]": {"system": "Micrococcus flavus", "assay": "Bactericidal activity against Micrococcus flavus ATCC 10240 after 72 hrs by microdilution method", "format": "functional"}, "Listeria monocytogenes [8]": {"system": "Listeria monocytogenes", "assay": "Bactericidal activity against Listeria monocytogenes NCTC 7973 after 72 hrs by microdilution method", "format": "functional"}, "Pseudomonas aeruginosa [9]": {"system": "Pseudomonas aeruginosa", "assay": "Antibacterial activity against Pseudomonas aeruginosa ATCC 27853 after 24 hrs by microdilution method", "format": "functional", "conditions": "ATCC 27853, 24 h"}, "Salmonella typhimurium [10]": {"system": "Salmonella typhimurium", "assay": "Antibacterial activity against Salmonella typhimurium ATCC 13311 after 24 hrs by microdilution method", "format": "functional, Salmonella enterica subsp. enterica serovar Typhimurium", "conditions": "Salmonella enterica, ATCC 13311, 24 h"}, "Escherichia coli [11]": {"system": "Escherichia coli", "assay": "Antibacterial activity against Escherichia coli ATCC 35210 after 24 hrs by microdilution method", "format": "functional", "conditions": "ATCC 35210, 24 h"}, "Enterococcus faecalis [12]": {"system": "Enterococcus faecalis", "assay": "Antibacterial activity against Enterococcus faecalis ATCC 7080 isolated from human after 24 hrs by microdilution method", "format": "functional", "conditions": "ATCC 7080, 24 h"}, "Pseudomonas aeruginosa [13]": {"system": "Pseudomonas aeruginosa", "assay": "Bactericidal activity against Pseudomonas aeruginosa ATCC 27853 after 72 hrs by microdilution method", "format": "functional"}, "Salmonella typhimurium [14]": {"system": "Salmonella typhimurium", "assay": "Bactericidal activity against Salmonella typhimurium ATCC 13311 after 72 hrs by microdilution method", "format": "functional, Salmonella enterica subsp. enterica serovar Typhimurium"}, "Escherichia coli [15]": {"system": "Escherichia coli", "assay": "Bactericidal activity against Escherichia coli ATCC 35210 after 72 hrs by microdilution method", "format": "functional"}, "Enterococcus faecalis [16]": {"system": "Enterococcus faecalis", "assay": "Bactericidal activity against Enterococcus faecalis ATCC 7080 isolated from human after 72 hrs by microdilution method", "format": "functional"}, "Aspergillus ochraceus [17]": {"system": "Aspergillus ochraceus", "assay": "Antifungal activity against Aspergillus ochraceus ATCC 12066 after 72 hrs by microdilution method", "format": "functional", "conditions": "ATCC 12066, 72 h"}, "Aspergillus versicolor [18]": {"system": "Aspergillus versicolor", "assay": "Antifungal activity against Aspergillus versicolor ATCC 11730 after 72 hrs by microdilution method", "format": "functional", "conditions": "ATCC 11730, 72 h"}, "Aspergillus flavus [19]": {"system": "Aspergillus flavus", "assay": "Antifungal activity against Aspergillus flavus ATCC 9643 after 72 hrs by microdilution method", "format": "functional", "conditions": "ATCC 9643, 72 h"}, "Aspergillus niger [20]": {"system": "Aspergillus niger", "assay": "Antifungal activity against Aspergillus niger ATCC 6275 after 72 hrs by microdilution method", "format": "functional", "conditions": "ATCC 6275, 72 h"}, "Aspergillus fumigatus [21]": {"system": "Aspergillus fumigatus", "assay": "Antifungal activity against Aspergillus fumigatus isolated from human after 72 hrs by microdilution method", "format": "functional"}, "Aspergillus ochraceus [22]": {"system": "Aspergillus ochraceus", "assay": "Fungicidal activity against Aspergillus ochraceus ATCC 12066 after 72 hrs by microdilution method", "format": "functional"}, "Aspergillus versicolor [23]": {"system": "Aspergillus versicolor", "assay": "Fungicidal activity against Aspergillus versicolor ATCC 11730 after 72 hrs by microdilution method", "format": "functional"}, "Aspergillus flavus [24]": {"system": "Aspergillus flavus", "assay": "Fungicidal activity against Aspergillus flavus ATCC 9643 after 72 hrs by microdilution method", "format": "functional"}, "Aspergillus niger [25]": {"system": "Aspergillus niger", "assay": "Fungicidal activity against Aspergillus niger ATCC 6275 after 72 hrs by microdilution method", "format": "functional"}, "Aspergillus fumigatus [26]": {"system": "Aspergillus fumigatus", "assay": "Fungicidal activity against Aspergillus fumigatus isolated from human after 72 hrs by microdilution method", "format": "functional"}, "Trichoderma viride [27]": {"system": "Trichoderma viride", "assay": "Antifungal activity against Trichoderma viride IAM 5061 after 72 hrs by microdilution method", "format": "functional", "conditions": "IAM 5061, 72 h"}, "Penicillium ochrochloron [28]": {"system": "Penicillium ochrochloron", "assay": "Antifungal activity against Penicillium ochrochloron ATCC 9112 after 72 hrs by microdilution method", "format": "functional", "conditions": "ATCC 9112, 72 h"}, "Talaromyces funiculosus [29]": {"system": "Talaromyces funiculosus", "assay": "Antifungal activity against Penicillium funiculosum ATCC 36839 after 72 hrs by microdilution method", "format": "functional", "conditions": "ATCC 36839, 72 h"}, "Trichoderma viride [30]": {"system": "Trichoderma viride", "assay": "Fungicidal activity against Trichoderma viride IAM 5061 after 72 hrs by microdilution method", "format": "functional"}, "Penicillium ochrochloron [31]": {"system": "Penicillium ochrochloron", "assay": "Fungicidal activity against Penicillium ochrochloron ATCC 9112 after 72 hrs by microdilution method", "format": "functional"}, "Talaromyces funiculosus [32]": {"system": "Talaromyces funiculosus", "assay": "Fungicidal activity against Penicillium funiculosum ATCC 36839 after 72 hrs by microdilution method", "format": "functional"}},
  "data": [
    {"compound": "CCNc1nc(C)c(C2=NN(c3ccccc3)C(c3ccccc3)C2)s1", "note": "(configuration not stated)", "values": [
      {"measurement": "MIC", "setting": "Staphylococcus aureus [1]", "result": 27.6, "unit": "µM"},
      {"measurement": "MIC", "setting": "Bacillus cereus [2]", "result": 55.2, "unit": "µM"},
      {"measurement": "MIC", "setting": "Micrococcus flavus [3]", "result": 110, "unit": "µM"},
      {"measurement": "MIC", "setting": "Listeria monocytogenes [4]", "result": 55.2, "unit": "µM"},
      {"measurement": "MBC99.5", "setting": "Staphylococcus aureus [5]", "result": 27.6, "unit": "×10⁻² umol/ml"},
      {"measurement": "MBC99.5", "setting": "Bacillus cereus [6]", "result": 27.6, "unit": "×10⁻² umol/ml"},
      {"measurement": "MBC99.5", "setting": "Micrococcus flavus [7]", "result": 44.16, "unit": "×10⁻² umol/ml"},
      {"measurement": "MBC99.5", "setting": "Listeria monocytogenes [8]", "result": 11.04, "unit": "×10⁻² umol/ml"},
      {"measurement": "MIC", "setting": "Pseudomonas aeruginosa [9]", "result": 276, "unit": "µM"},
      {"measurement": "MIC", "setting": "Salmonella typhimurium [10]", "result": 276, "unit": "µM"},
      {"measurement": "MIC", "setting": "Escherichia coli [11]", "result": 276, "unit": "µM"},
      {"measurement": "MIC", "setting": "Enterococcus faecalis [12]", "result": 110, "unit": "µM"},
      {"measurement": "MBC99.5", "setting": "Pseudomonas aeruginosa [13]", "result": 44.16, "unit": "×10⁻² umol/ml"},
      {"measurement": "MBC99.5", "setting": "Salmonella typhimurium [14]", "result": 30.9, "unit": "×10⁻² umol/ml"},
      {"measurement": "MBC99.5", "setting": "Escherichia coli [15]", "result": 44.16, "unit": "×10⁻² umol/ml"},
      {"measurement": "MBC99.5", "setting": "Enterococcus faecalis [16]", "result": 27.6, "unit": "×10⁻² umol/ml"},
      {"measurement": "MIC", "setting": "Aspergillus ochraceus [17]", "result": 27.6, "unit": "µM"},
      {"measurement": "MIC", "setting": "Aspergillus versicolor [18]", "result": 55.2, "unit": "µM"},
      {"measurement": "MIC", "setting": "Aspergillus flavus [19]", "result": 110, "unit": "µM"},
      {"measurement": "MIC", "setting": "Aspergillus niger [20]", "result": 309, "unit": "µM"},
      {"measurement": "MIC", "setting": "Aspergillus fumigatus [21]", "result": 110, "unit": "µM"},
      {"measurement": "MFC99.5", "setting": "Aspergillus ochraceus [22]", "result": 11.04, "unit": "×10⁻² umol/ml"},
      {"measurement": "MFC99.5", "setting": "Aspergillus versicolor [23]", "result": 27.6, "unit": "×10⁻² umol/ml"},
      {"measurement": "MFC99.5", "setting": "Aspergillus flavus [24]", "result": 27.6, "unit": "×10⁻² umol/ml"},
      {"measurement": "MFC99.5", "setting": "Aspergillus niger [25]", "result": 44.16, "unit": "×10⁻² umol/ml"},
      {"measurement": "MFC99.5", "setting": "Aspergillus fumigatus [26]", "result": 44.16, "unit": "×10⁻² umol/ml"},
      {"measurement": "MIC", "setting": "Trichoderma viride [27]", "result": 276, "unit": "µM"},
      {"measurement": "MIC", "setting": "Penicillium ochrochloron [28]", "result": 309, "unit": "µM"},
      {"measurement": "MIC", "setting": "Talaromyces funiculosus [29]", "result": 110, "unit": "µM"},
      {"measurement": "MFC99.5", "setting": "Trichoderma viride [30]", "result": 30.9, "unit": "×10⁻² umol/ml"},
      {"measurement": "MFC99.5", "setting": "Penicillium ochrochloron [31]", "result": 44.16, "unit": "×10⁻² umol/ml"},
      {"measurement": "MFC99.5", "setting": "Talaromyces funiculosus [32]", "result": 30.9, "unit": "×10⁻² umol/ml"}
    ]}
  ]
}
